This assay has as its system L1210 leukemia ip in BDF1 mice, survival T/C. Put plainly: NCI In Vivo Anticancer Drug Screen. Data for tumor model L1210 Leukemia (intraperitoneal) in B6D2F1 (BDF1) mice. Conditions: endpoint: mean survival time, higher = longer survival. In outline: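 Tumor was transplanted into mice, which were then dosed with test compound or vehicle alone. Survival was recorded for each group, and the treated figure was expressed relative to the control figure.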

The mark [1] stands for this setting: dose: 100.0 mg/kg/injection, schedule: Q04DX003 (ip), vehicle: saline with Tween-80.
Setting [2] is: dose: 200.0 mg/kg/injection, schedule: Q04DX003 (ip), vehicle: saline with Tween-80.
Setting [3] is: dose: 400.0 mg/kg/injection, schedule: Q04DX003 (ip), vehicle: saline with Tween-80.
[4] abbreviates: dose: 100.0 mg/kg/injection, schedule: Q01DX001 (ip), vehicle: saline.
Where [5] appears, read: dose: 200.0 mg/kg/injection, schedule: Q01DX001 (ip), vehicle: saline.
The mark [6] stands for this setting: dose: 400.0 mg/kg/injection, schedule: Q01DX001 (ip), vehicle: saline.
[7] abbreviates: dose: 100.0 mg/kg/injection, schedule: Q01DX009 (ip), vehicle: Klucel (hydroxypropylcellulose) (HPC).
The mark [8] stands for this setting: dose: 100.0 mg/kg/injection, schedule: Q04DX003 (ip), vehicle: Klucel (hydroxypropylcellulose) (HPC).
[9] abbreviates: dose: 200.0 mg/kg/injection, schedule: Q01DX009 (ip), vehicle: Klucel (hydroxypropylcellulose) (HPC).
Where [10] appears, read: dose: 200.0 mg/kg/injection, schedule: Q04DX003 (ip), vehicle: Klucel (hydroxypropylcellulose) (HPC).
Setting [11] is: dose: 400.0 mg/kg/injection, schedule: Q01DX009 (ip), vehicle: Klucel (hydroxypropylcellulose) (HPC).
[12] abbreviates: dose: 400.0 mg/kg/injection, schedule: Q04DX003 (ip), vehicle: Klucel (hydroxypropylcellulose) (HPC).

SMILES strings stand for the structures. Several values for one entry are separate records, joined by “and”; a condition that tells them apart may be missing. Equal values may be shown once. Inconclusive results and toxic doses are left out.

As for `COC(=O)c1ccccc1NC(OC)c1cccc([N+](=O)[O-])c1` (stereo not drawn), the T/C reads like this: (dose: 100.0 mg/kg/injection, schedule: Q01DX001 (ip), vehicle: saline with Tween-80) 90 % of control; (dose: 100.0 mg/kg/injection, schedule: Q04DX002 (ip), vehicle: saline with Tween-80) 93 % of control and 89 % of control; under setting [1], 92 % of control; (dose: 200.0 mg/kg/injection, schedule: Q01DX001 (ip), vehicle: saline with Tween-80) 92 % of control; (dose: 200.0 mg/kg/injection, schedule: Q04DX002 (ip), vehicle: saline with Tween-80) 86 % of control and 90 % of control; under setting [2], 92 % of control. Besides, the T/C is, setting by setting: (dose: 400.0 mg/kg/injection, schedule: Q01DX001 (ip), vehicle: saline with Tween-80) 87 % of control; (dose: 400.0 mg/kg/injection, schedule: Q04DX002 (ip), vehicle: saline with Tween-80) 87 % of control; under setting [3], 89 % of control.

In the case of `Fc1ccc(NC(=S)N/N=C\c2ccc(Cl)cc2Cl)cc1`, the T/C by setting is: (dose: 60.0 mg/kg/injection, schedule: Q01DX Z (oral), vehicle: methylcellulose (MC)) 103 % of control; (dose: 120.0 mg/kg/injection, schedule: Q01DX Z (oral), vehicle: methylcellulose (MC)) 89 % of control; (dose: 240.0 mg/kg/injection, schedule: Q01DX Z (ip), vehicle: methylcellulose (MC)) 89 % of control; (dose: 240.0 mg/kg/injection, schedule: Q01DX Z (oral), vehicle: methylcellulose (MC)) 93 % of control; (dose: 480.0 mg/kg/injection, schedule: Q01DX Z (oral), vehicle: methylcellulose (MC)) 95 % of control.

On to `CC(C)N(C(C)C)C(C)CCNc1c2ccccc2nc2cc(Cl)ccc12` (stereo not drawn), for which the T/C reads like this: (dose: 1.88 mg/kg/injection, schedule: Q01DX Z (ip), vehicle: methylcellulose (MC)) 113 % of control; (dose: 3.0 mg/kg/injection, schedule: Q01DX Z (ip), vehicle: methylcellulose (MC)) 117 % of control; (dose: 3.75 mg/kg/injection, schedule: Q01DX Z (ip), vehicle: methylcellulose (MC)) 115 % of control; (dose: 5.0 mg/kg/injection, schedule: Q01DX Z (ip), vehicle: methylcellulose (MC)) 116 % of control; (dose: 6.0 mg/kg/injection, schedule: Q04DX003 (ip), vehicle: saline) 98 % of control; (dose: 7.5 mg/kg/injection, schedule: Q01DX Z (ip), vehicle: methylcellulose (MC)) 110 % of control. Further, the T/C is, setting by setting: (dose: 12.0 mg/kg/injection, schedule: Q04DX003 (ip), vehicle: saline) 102 % of control; (dose: 15.0 mg/kg/injection, schedule: Q01DX Z (ip), vehicle: methylcellulose (MC)) 109 % of control; (dose: 24.0 mg/kg/injection, schedule: Q04DX003 (ip), vehicle: saline) 105 % of control.

Turning to `CCS(=O)(=O)c1ccc(NC(=O)OC2CCCCCCC2)cc1`, the T/C is 93 % of control (dose: 100.0 mg/kg/injection, schedule: Q01DX001 (ip), vehicle: other); 93 % of control (dose: 200.0 mg/kg/injection, schedule: Q01DX001 (ip), vehicle: other); 93 % of control (dose: 400.0 mg/kg/injection, schedule: Q01DX001 (ip), vehicle: other).

As to `O=C1NC(C2CCC3CN32)C(=O)NC1C1CCC2CN21` (stereo not drawn), the T/C was 102 % of control and 105 % of control (dose: 0.2 mg/kg/injection, schedule: Q01DX009 (ip), vehicle: saline); 110 % of control and 113 % of control (dose: 0.4 mg/kg/injection, schedule: Q01DX009 (ip), vehicle: saline); 101 % of control (dose: 0.5 mg/kg/injection, schedule: Q01DX001 (ip), vehicle: Klucel (hydroxypropylcellulose) (HPC)); 110 % of control (dose: 0.8 mg/kg/injection, schedule: Q01DX009 (ip), vehicle: saline); 101 % of control (dose: 1.0 mg/kg/injection, schedule: Q01DX001 (ip), vehicle: Klucel (hydroxypropylcellulose) (HPC)); 112 % of control (dose: 1.1 mg/kg/injection, schedule: Q01DX009 (ip), vehicle: saline). The T/C (dose: 2.0 mg/kg/injection, schedule: Q01DX001 (ip), vehicle: Klucel (hydroxypropylcellulose) (HPC)) is 151 % of control; the T/C (dose: 2.7 mg/kg/injection, schedule: Q01DX009 (ip), vehicle: saline) is 163 % of control; the T/C (dose: 5.0 mg/kg/injection, schedule: Q01DX009 (ip), vehicle: saline) was 182 % of control; the T/C (dose: 10.0 mg/kg/injection, schedule: Q01DX009 (ip), vehicle: saline) was 103 % of control; the T/C (dose: 16.0 mg/kg/injection, schedule: Q01DX001 (ip), vehicle: Klucel (hydroxypropylcellulose) (HPC)) was 164 % of control and 271 % of control; the T/C (dose: 24.0 mg/kg/injection, schedule: Q01DX001 (ip), vehicle: Klucel (hydroxypropylcellulose) (HPC)) is 169 % of control. In addition, where the note is “dose: 36.0 mg/kg/injection, schedule: Q01DX001 (ip), vehicle: Klucel (hydroxypropylcellulose) (HPC)”, the T/C was 101 % of control.

As for `Clc1cc(Cl)c(OCC#CI)cc1Cl`, the T/C is 104 % of control (dose: 50.0 mg/kg/injection, schedule: Q01DX001 (ip), vehicle: saline); 98 % of control under setting [4]; 93 % of control under setting [5]; 89 % of control under setting [6].

Turning to `COc1ccc2c(c1)CCC1=C2CCC2(C)C(=O)OC(=O)C12` (stereo not drawn), the T/C reads like this: under setting [7], 103 % of control; under setting [8], 102 % of control; under setting [9], 97 % of control; under setting [10], 93 % of control; under setting [11], 101 % of control; under setting [12], 111 % of control.

Regarding `O=C(OCC(O)C(O)C(O)C(SCc1ccccc1)SCc1ccccc1)c1ccc([N+](=O)[O-])cc1` (stereo not drawn), the T/C is 93 % of control under setting [4], 94 % of control under setting [5] and 94 % of control under setting [6].

In the case of `S=C(Nc1ccccc1)Nc1ncn[nH]1`, the T/C is, setting by setting: (dose: 75.0 mg/kg/injection, schedule: Q01DX001 (ip), vehicle: carboxymethylcellulose (CMC)) 95 % of control; (dose: 150.0 mg/kg/injection, schedule: Q01DX001 (ip), vehicle: carboxymethylcellulose (CMC)) 98 % of control; (dose: 300.0 mg/kg/injection, schedule: Q01DX001 (ip), vehicle: carboxymethylcellulose (CMC)) 88 % of control.

With `CCOC(=O)C(C)C1CCCc2c(C)ccc(C)c21` (stereo not drawn), the T/C was 100 % of control under setting [7]; 98 % of control under setting [8]; 102 % of control under setting [9]; 92 % of control under setting [10]; 93 % of control under setting [11]; 98 % of control under setting [12].

`CCOC(=O)c1cnc(SC)nc1Sc1ccc(Cl)cc1`: the T/C reads like this: (dose: 100.0 mg/kg/injection, schedule: Q01DX009 (ip), vehicle: saline with Tween-80) 96 % of control; under setting [1], 96 % of control; (dose: 200.0 mg/kg/injection, schedule: Q01DX009 (ip), vehicle: saline with Tween-80) 94 % of control; under setting [2], 96 % of control; (dose: 400.0 mg/kg/injection, schedule: Q01DX009 (ip), vehicle: saline with Tween-80) 98 % of control; under setting [3], 94 % of control.

For `CC(C)COC(=O)c1ccccc1O`, the T/C is, setting by setting: under setting [7], 98 % of control; under setting [8], 96 % of control; under setting [9], 99 % of control; under setting [10], 96 % of control; under setting [11], 87 % of control; under setting [12], 89 % of control.

With `CC(=O)[C@@]1(O)CC[C@H]2[C@@H]3C=C(C)C4=CC(=O)C=C[C@]4(C)[C@@]3(F)[C@@H](O)C[C@@]21C`, the T/C (dose: 50.0 mg/kg/injection, schedule: Q01DX001 (sc), vehicle: steriod suspending solution) was 96 % of control; the T/C (dose: 100.0 mg/kg/injection, schedule: Q01DX001 (sc), vehicle: steriod suspending solution) was 102 % of control; the T/C (dose: 200.0 mg/kg/injection, schedule: Q01DX001 (sc), vehicle: steriod suspending solution) was 105 % of control; the T/C (dose: 400.0 mg/kg/injection, schedule: Q01DX001 (sc), vehicle: steriod suspending solution) was 118 % of control.

Turning to `CC1(C)S[C@@H]2[C@H](NC(=O)Cc3ccc([N+](=O)[O-])cc3)CN2[C@H]1N=C=O`, the T/C was 93 % of control under setting [4], 91 % of control under setting [5] and 98 % of control under setting [6].

With `CCC(CCl)NC(=O)Nc1cccc2c1CCCC2` (stereo not drawn), the T/C is 98 % of control under setting [8], 96 % of control under setting [10] and 98 % of control under setting [12].

The record behind these values is PubChem BioAssay AID248 (DTP/NCI, 2004).
